Results on nine molecules are retold here after patent US10105357B2, “Indication of antibiotic drugs for preparation of cancer inhibition pharmaceutical composition” (LAUNX BIOMEDICAL CO., LTD., priority 2014, dated 2018).

Counter-ions that a name gives are not always drawn. Like-named read-outs stand apart in the source and are kept apart here.

Common to all, as to type: cell-based, human
The subject of assay [1] is MKN-45 (Gastric Adenocarcinoma). The experiment in a line: Cell viability analysis, gastric cancer MKN-45. Particulars: Homo sapiens, MKN-45, 72 h.
In assay [2] the test system is HepG2 (Hepatocellular Carcinoma). The experiment in a line: Cell viability analysis, hepatic cancer HepG2. Particulars: Homo sapiens, HepG2, 72 h.
The test system of assay [3] is A549 (Lung Adenocarcinoma). The experiment in a line: Cell viability analysis, lung cancer A549. Particulars: Homo sapiens, A549, 72 h.
Assay [4] concerns MCF7 (Mammary Gland, Adenocarcinoma). The assay is described as follows: Cell viability analysis, breast cancer MCF7. The conditions noted are these: Homo sapiens, MCF7, 72 h.
For assay [5], the system named is HL-60 (Acute Promyelocytic Leukemia). The assay is described as follows: Cell viability analysis, leukemia HL-60. Particulars: Homo sapiens, HL-60, 72 h.
The subject of assay [6] is A375 (Amelanotic Melanoma). The experiment in a line: Cell viability analysis, skin cancer A375. Particulars: Homo sapiens, A-375, 72 h.
Assay [7] has as its system PC3 (p53−) (Prostate Adenocarcinoma). The experiment in a line: Cell viability analysis, prostate cancer PC3. Particulars: Homo sapiens, 72 h.
Assay [8] relates to HI650 (Lung Adenocarcinoma). The assay is described as follows: Cell viability analysis, lung cancer HI650. Particulars: Homo sapiens, NCI-H1650, 72 h.
The test system of assay [9] is AGS (Gastric Adenocarcinoma). The assay is described as follows: Cell viability analysis, gastric cancer AGS. The conditions noted are these: Homo sapiens, 72 h.
The test system of assay [10] is cancer cell lines. The experiment in a line: Cell viability analysis (WST-1) on cancer cell lines. The conditions noted are these: drug 10 μM, 72 hours, WST-1; Table 3.
The test system of assay [11] is HeLa (Cervix Adenocarcinoma). The experiment in a line: Cell viability analysis, cervical cancer HeLa. Particulars: Homo sapiens, HeLa, 72 h.
Assay [12] concerns LoVo (Colorectal Adenocarcinoma). The assay is described as follows: Cell viability analysis, colon cancer LoVo. The conditions noted are these: Homo sapiens, LoVo, 72 h, read-out: cell viability (survival rate), LoVo, drug 10 μM, 72 hours, WST-1, OD450 nm. Background: Tetrazolium assays rely on reduction of a dye to a coloured formazan, in cell work by metabolically active cells.

Assay [13] concerns TSGH-8301 (Urinary Bladder Carcinoma). The assay is described as follows: Cell viability analysis, bladder cancer TSGH-8301. Particulars: Homo sapiens, 72 h.
Setting [14] is: read-out: cell viability (survival rate), MKN-45, drug 10 μM, 72 hours, WST-1, OD450 nm.
Where [15] appears, read: read-out: cell viability (survival rate), HepG2, drug 10 μM, 72 hours, WST-1, OD450 nm.
Where [16] appears, read: read-out: cell viability (survival rate), A549, drug 10 μM, 72 hours, WST-1, OD450 nm.
Setting [17] is: read-out: cell viability (survival rate), MCF7, drug 10 μM, 72 hours, WST-1, OD450 nm.
[18] abbreviates: read-out: cell viability (survival rate), HL-60, drug 10 μM, 72 hours, WST-1, OD450 nm.
Setting [19] is: read-out: cell viability (survival rate), A375, drug 10 μM, 72 hours, WST-1, OD450 nm.
Setting [20] is: read-out: cell viability (survival rate), PC3, drug 10 μM, 72 hours, WST-1, OD450 nm.
The mark [21] stands for this setting: read-out: cell viability (survival rate), H1650, drug 10 μM, 72 hours, WST-1, OD450 nm.
[22] abbreviates: read-out: cell viability (survival rate), AGS, drug 10 μM, 72 hours, WST-1, OD450 nm.
Where [23] appears, read: read-out: cell viability (survival rate), HeLa, drug 10 μM, 72 hours, WST-1, OD450 nm.
Setting [24] is: read-out: cell viability (survival rate), TSGH, drug 10 μM, 72 hours, WST-1, OD450 nm.
[25] abbreviates: drug 10 μM, 72 hours, WST-1, OD450 nm, read-out: cell viability (survival rate), MKN-45.
The mark [26] stands for this setting: drug 10 μM, 72 hours, WST-1, OD450 nm, read-out: cell viability (survival rate), HepG2.
Where [27] appears, read: drug 10 μM, 72 hours, WST-1, OD450 nm, read-out: cell viability (survival rate), A549.
[28] abbreviates: drug 10 μM, 72 hours, WST-1, OD450 nm, read-out: cell viability (survival rate), MCF7.
The mark [29] stands for this setting: drug 10 μM, 72 hours, WST-1, OD450 nm, read-out: cell viability (survival rate), HL-60.
Setting [30] is: drug 10 μM, 72 hours, WST-1, OD450 nm, read-out: cell viability (survival rate), A375.
Where [31] appears, read: drug 10 μM, 72 hours, WST-1, OD450 nm, read-out: cell viability (survival rate), PC3.
Where [32] appears, read: drug 10 μM, 72 hours, WST-1, OD450 nm, read-out: cell viability (survival rate), H1650.
Where [33] appears, read: drug 10 μM, 72 hours, WST-1, OD450 nm, read-out: cell viability (survival rate), AGS.
Where [34] appears, read: drug 10 μM, 72 hours, WST-1, OD450 nm, read-out: cell viability (survival rate), HeLa.
Setting [35] is: drug 10 μM, 72 hours, WST-1, OD450 nm, read-out: cell viability (survival rate), TSGH.

As to `Cc1ncc([N+](=O)[O-])n1CC(C)O` (stereo not drawn) [Secnidazole (Flagentyl), Secnidazole], the viability at 10 µM in assay [1] (setting [14]) was determined as 77.2%; in assay [2] (setting [15]) it was 99%; in assay [3] (setting [16]), 69.2%; in assay [4] (setting [17]), 81%; in assay [5] (setting [18]), 97.2%; in [6] (setting [19]), 117%. Further, the viability at 10 µM was 81.6% in assay [7] (setting [20]); 46.8% in [8] (setting [21]); 78% in assay [9] (setting [22]); 124% in [11] (setting [23]); 85.4% in assay [12]; 52.1% in assay [13] (setting [24]). For the same molecule, in [10], the “inhibition effect on different cancer cell lines” value was “significant inhibition effect”.
Take `CC1(C)O[C@@H]2C[C@H]3[C@@H]4C[C@H](F)C5=CC(=O)C=C[C@]5(C)[C@@]4(F)[C@@H](O)C[C@]3(C)[C@]2(C(=O)CO)O1` [Fluocinolone acetonide (Flucort-N), Fluocinolone acetonide]: the viability at 10 µM in [1] (setting [25]) is 34.9%; in [2] (setting [26]), 74.5%; in assay [3] (setting [27]), 52.5%; in [4] (setting [28]), 54.2%; in assay [5] (setting [29]), 116%; in [6] (setting [30]), 45.8%. Moreover, the viability at 10 µM in [7] (setting [31]) turned out to be 40.7%; in assay [8] (setting [32]), 58.4%; in assay [9] (setting [33]) it was 30%; in assay [11] (setting [34]), 46%; in assay [12] it was 52.3%; in [13] (setting [35]), 38.3%. Moreover, the “inhibition effect on different cancer cell lines” value in assay [10] is reported as “significant inhibition effect”.
For `[H]/N=C(/N)N[C@H]1[C@H](O)[C@@H](O)[C@H](O[C@@H]2O[C@@H](C)[C@](O)(C=O)[C@H]2O[C@@H]2O[C@@H](CO)[C@H](O)[C@@H](O)[C@@H]2NC)[C@@H](N/C(N)=N\[H])[C@@H]1O` [Streptomycin sulfate], the viability at 10 µM in assay [1] (setting [14]) was found to be 68.7%; in [2] (setting [15]) it was 84.5%; in assay [3] (setting [16]), 57.3%; in assay [4] (setting [17]), 72%; in [5] (setting [18]) it was 93.3%; in assay [6] (setting [19]), 77.5%. Besides, the viability at 10 µM is 59.1% in assay [7] (setting [20]); 40.6% in assay [8] (setting [21]); 65.5% in assay [9] (setting [22]); 88.9% in assay [11] (setting [23]); 46.6% in assay [12]; 23.3% in assay [13] (setting [24]). For the same molecule, the “inhibition effect on different cancer cell lines” value in assay [10] is “significant inhibition effect”.
For the molecule `O=C1OC(CN2CCOCC2)CN1/N=C/c1ccc([N+](=O)[O-])o1` (stereo not drawn) [Furaltadone HCl], the viability at 10 µM in assay [1] (setting [14]) stood at 72.6%; in assay [2] (setting [15]) it was 83.2%; in [3] (setting [16]), 67.9%; in assay [4] (setting [17]) it was 103%; in assay [5] (setting [18]), 64.6%; in [6] (setting [19]), 66%. Besides, the viability at 10 µM was 99.2% in [7] (setting [20]); 83.1% in assay [8] (setting [21]); 68.2% in assay [9] (setting [22]); 64% in assay [11] (setting [23]); 62.2% in [12]; 81.3% in assay [13] (setting [24]). Further, the “inhibition effect on different cancer cell lines” value in assay [10] is on record as “significant inhibition effect”.
Regarding `O=C(O)c1cn(-c2ccc(F)cc2)c2cc(N3CCNCC3)c(F)cc2c1=O` [Sarafloxacin HCl], the viability at 10 µM in assay [1] (setting [25]) was 75.3%; in assay [2] (setting [26]), 91.1%; in assay [3] (setting [27]) it was 98.6%; in assay [4] (setting [28]) it was 107%; in assay [5] (setting [29]), 112%; in assay [6] (setting [30]), 97.8%. Besides, the viability at 10 µM in [7] (setting [31]) worked out at 80.9%; in assay [8] (setting [32]), 58.9%; in assay [9] (setting [33]), 88%; in [11] (setting [34]) it was 81%; in assay [12], 106%; in assay [13] (setting [35]), 122%. Further, in assay [10], the “inhibition effect on different cancer cell lines” value is “significant inhibition effect”.
For the molecule `CCN1CCN(c2cc3c(cc2F)c(=O)c(C(=O)O)cn3C2CC2)CC1` [Enrofloxacin], the viability at 10 µM in assay [1] (setting [14]) worked out at 37.4%; in [2] (setting [15]), 77.2%; in assay [3] (setting [16]), 67.5%; in [4] (setting [17]) it was 66.6%; in assay [5] (setting [18]) it was 86.6%; in assay [6] (setting [19]), 65.2%. The viability at 10 µM was 48.6% in [7] (setting [20]); 44.5% in [8] (setting [21]); 94.5% in [9] (setting [22]); 67% in assay [11] (setting [23]); 84.8% in [12]; 77.9% in assay [13] (setting [24]). In [10], the “inhibition effect on different cancer cell lines” value was “significant inhibition effect”.
Regarding `Nc1ccc(S(=O)(=O)Nc2ccccn2)cc1` [Sulfapyridine (Dagenan), Sulfapyridine], the viability at 10 µM in [1] (setting [14]) is 53.8%; in assay [2] (setting [15]), 98.9%; in [3] (setting [16]), 64.5%; in assay [4] (setting [17]), 54.7%; in assay [5] (setting [18]), 111%; in assay [6] (setting [19]), 77.2%. Also, the viability at 10 µM in assay [7] (setting [20]) is 108%; in assay [8] (setting [21]), 69.5%; in [9] (setting [22]), 71.9%; in assay [11] (setting [23]) it was 71.2%; in [12] it was 84.6%; in assay [13] (setting [24]), 64.6%. Also, the “inhibition effect on different cancer cell lines” value in assay [10] is listed as “significant inhibition effect”.
As for `Nc1[nH]c(=O)ncc1F` [Flucytosine (Ancobon), Flucytosine], the viability at 10 µM in [1] (setting [14]) stood at 72.9%; in [2] (setting [15]), 93.2%; in assay [3] (setting [16]), 91.4%; in assay [4] (setting [17]), 75.3%; in assay [5] (setting [18]) it was 102%; in assay [6] (setting [19]), 102%. Moreover, the viability at 10 µM in assay [7] (setting [20]) stood at 108%; in assay [8] (setting [21]), 92.1%; in assay [9] (setting [22]) it was 70.7%; in assay [11] (setting [23]) it was 80.9%; in assay [12] it was 108%; in [13] (setting [24]) it was 93.9%. In [10], the “inhibition effect on different cancer cell lines” value was “significant inhibition effect”.
`N#CC(c1ccc(Cl)cc1)c1c(Cl)cc(-n2ncc(=O)[nH]c2=O)cc1Cl` (stereo not drawn) [Diclazuril]: the viability at 10 µM worked out at 97.9% in [1] (setting [25]); 99.3% in [2] (setting [26]); 42.7% in [3] (setting [27]); 40.4% in assay [4] (setting [28]); 70.2% in assay [5] (setting [29]); 84.5% in assay [6] (setting [30]). For the same molecule, the viability at 10 µM is 95.5% in assay [7] (setting [31]); 104% in assay [8] (setting [32]); 76.3% in assay [9] (setting [33]); 76.1% in [11] (setting [34]); 78.4% in assay [12]; 103% in assay [13] (setting [35]). For the same molecule, the “inhibition effect on different cancer cell lines” value in assay [10] was “significant inhibition effect”.

In general, viability refers to a read-out of living cells in per cent, often relative to untreated cells.
